The source made the active and inactive calls. No stated cut-off is given here; in the data, actives have a measured IC50 and inactives only a lower limit.

For the assay, the target named is Envelope glycoprotein gp160 (Human immunodeficiency virus 1, UniProt Q6QLK5). The experiment in a line: inhibitors of HIV fusion peptide binding, primary screen, biochemical, uHTS, fluorescence dequenching (AID 1986).
Envelope glycoprotein gp160, sequence (Q6QLK5 whole entry, the tested form may be a part): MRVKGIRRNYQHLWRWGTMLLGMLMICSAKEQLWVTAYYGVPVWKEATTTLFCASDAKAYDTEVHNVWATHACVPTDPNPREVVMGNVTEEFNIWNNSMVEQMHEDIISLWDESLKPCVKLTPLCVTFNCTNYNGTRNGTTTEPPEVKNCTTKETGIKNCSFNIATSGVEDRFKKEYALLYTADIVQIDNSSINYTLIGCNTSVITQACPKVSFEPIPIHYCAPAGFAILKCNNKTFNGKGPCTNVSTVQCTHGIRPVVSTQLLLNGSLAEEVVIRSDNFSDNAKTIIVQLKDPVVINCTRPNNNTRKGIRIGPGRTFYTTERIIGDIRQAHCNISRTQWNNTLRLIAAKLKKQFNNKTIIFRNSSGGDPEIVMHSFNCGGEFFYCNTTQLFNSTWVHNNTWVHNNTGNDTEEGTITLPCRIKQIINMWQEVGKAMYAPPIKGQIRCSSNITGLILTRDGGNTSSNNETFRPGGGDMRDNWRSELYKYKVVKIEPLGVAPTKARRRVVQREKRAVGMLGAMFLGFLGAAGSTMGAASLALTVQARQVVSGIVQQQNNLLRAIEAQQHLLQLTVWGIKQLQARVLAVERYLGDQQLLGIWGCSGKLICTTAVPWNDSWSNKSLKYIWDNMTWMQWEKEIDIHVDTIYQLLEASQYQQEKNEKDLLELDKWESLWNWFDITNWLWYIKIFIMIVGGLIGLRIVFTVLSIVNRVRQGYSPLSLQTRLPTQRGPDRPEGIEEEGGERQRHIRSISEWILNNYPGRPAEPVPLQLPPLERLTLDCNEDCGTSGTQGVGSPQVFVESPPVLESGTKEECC
Regarding `O=C1/C(=C2\C(=O)N(Cc3ccc(F)cc3)c3ccccc32)SC(=S)N1CCS(=O)(=O)O`, the 50% inhibitory concentration (IC50) (in general, the point on the concentration scale where inhibition reaches its midpoint) is 15 µM (active). The result for `CCCOc1ccc(C(=O)NNC(=S)NC(=O)c2cc(-c3ccc(Cl)cc3)nc3ccccc23)cc1` reads 19.9 µM (active). The result for `CCOc1cc(/C=N/NC2=NC(=O)C(CC(=O)O)S2)ccc1OCc1ccc(Cl)cc1` (stereo not drawn) reads 24.6 µM (active).

Source of the values: ChEMBL document CHEMBL1201862, “PubChem BioAssay data set” (2004).
